According to ChEMBL document CHEMBL1201862, “PubChem BioAssay data set” (2004):
Calls of active or inactive are those of the source.

Legend:
[1] = cytotoxicity in MITF-independent A375 cells – cell-based, CellTiter-Glo luminescence, dry powder, set 4, counter-screen for MITF inhibitor project, dose response (AID 624364); assay type: functional; settings: A-375;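 also: A375 melanoma cells are MITF independent so this is a counter screen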
[2] = viability loss in MITF-independent A375 cells – cell-based, CellTiter-Glo luminescence, dry powder, set 2, counter-screen for MITF inhibitor project, dose response (AID 624489); assay type: functional; settings: A-375;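 also: actives are compounds lowering A375 viability meaning general cytotoxicity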
[3] = biological target: T1, Low molecular weight phosphotyrosine protein phosphatase (Homo sapiens, UniProt P24666); assay: inhibition of LMPTP-A enzymatic activity – biochemical, OMFP substrate, fluorescence intensity, set 2, dose response (AID 743307); assay type: functional
[4] = biological target: T1, Low molecular weight phosphotyrosine protein phosphatase; assay: inhibition of human LMPTP enzyme activity – biochemical, absorbance, pNPP substrate, LMPTP-A isoform, set 2, orthogonal assay, dose response (AID 743308); assay type: functional
Paired box protein Pax-8 = Paired box protein Pax-8 (Homo sapiens, UniProt Q06710); assay: PAX8 transcriptional activity inhibition in RMG-I – RMG-I cells, luciferase, cherry-pick, dose response (AID 687027); assay type: functional, cell-based;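 also: luciferase reporter driven by Pax8 target thyroperoxidase promoter measured by SteadyGlo luminescence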
[5] = OVCAR-3 cell viability loss – plate reader, dry powder samples, PAX8 inhibitor project, dose response (AID 743044); assay type: functional, cell-based
[6] = general cell-killing toxicity readout – plate reader, dry powder samples, cytotoxicity control for PAX8 inhibitor project, dose response (AID 743021); assay type: functional, cell-based
[7] = OVCAR8 cell viability loss – plate reader, dry powder samples, PAX8 project, dose response (AID 743197); assay type: functional, cell-based; settings: OVCAR-8
[8] = growth inhibition of yeast DHODH-expressing 3D7 parasites – SYBR Green, dry powder samples, dose response (AID 1159570); assay type: functional, cell-based;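 also: parasite growth measured after 72 hours of compound exposure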
[9] = toxicity to human HepG2 hepatoma cells – cell-based, plate reader, dry powder samples, cytotoxicity control, dose response (AID 1159569); assay type: functional;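 also: inhibitor potency with signal falling toward the positive control level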
[10] = P. falciparum Dd2 growth inhibitors, dose response, SYBR Green, cherry-picked samples (AID 1159567); assay type: functional, cell-based
[11] = Dd2 malaria parasite growth inhibition potency – SYBR Green, dry powder samples, dose response (AID 1159566); assay type: functional, cell-based;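 also: potency for growth inhibition with lower SYBR green DNA signal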
[12] = toxicity to human hepatoma HepG2 cells – cell-based, cherry-picked samples, cytotoxicity control, dose response (AID 1159577); assay type: functional
[13] = growth inhibition of PfATP4-mutant resistant parasites – NITD609-resistant line, SYBR Green, dry powder, dose response (AID 1159571); assay type: functional, cell-based;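 also: parasites synchronized at ring stage by sorbitol before testing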
[14] = biological target: RNA-editing ligase 1, mitochondrial (Trypanosoma brucei brucei, UniProt P86926); assay: inhibition of trypanosome RNA editing ligase – biochemical, fluorescence, Trypanosoma brucei, dose response (AID 1117295); assay type: functional
[15] = viability loss in Vero cells – cytotoxicity control for Vif-APOBEC3G degradation inhibitor project, dose response (AID 1117358); assay type: functional; settings: Vero
[16] = biological target: NAD-dependent protein deacylase sirtuin-5, mitochondrial (Homo sapiens, UniProt Q9NXA8); assay: blockers of sirtuin-5 peptide desuccinylation – biochemical, fluorescence imaging, cherry-pick, set 6, dose response (AID 720597)
[17] = viability loss in THP-1 monocytes – THP-1 cells, cytotoxicity control for Vif-APOBEC3G degradation inhibitor project, dose response (AID 1117359); assay type: functional; settings: THP-1
[18] = A2780 cell killing – plate reader, dry powder samples, cytotoxicity control, dose response (AID 743046); assay type: functional, cell-based
[19] = IGROV1 cell killing – plate reader, dry powder samples, PAX8 inhibitor project, dose response (AID 743043); assay type: functional, cell-based; settings: IGROV-1
[20] = viability loss in HepG2 liver cells – cell-based, ATP luminescence, cherry-pick, set 6, cytotoxicity control, dose response (AID 1053125); assay type: functional

T1 sequence (P24666 whole entry, canonical isoform): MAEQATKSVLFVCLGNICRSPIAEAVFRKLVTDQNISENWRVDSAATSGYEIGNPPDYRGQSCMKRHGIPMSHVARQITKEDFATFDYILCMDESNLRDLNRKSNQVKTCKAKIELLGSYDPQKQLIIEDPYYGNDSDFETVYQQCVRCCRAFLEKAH
Paired box protein Pax-8, sequence (Q06710 whole entry): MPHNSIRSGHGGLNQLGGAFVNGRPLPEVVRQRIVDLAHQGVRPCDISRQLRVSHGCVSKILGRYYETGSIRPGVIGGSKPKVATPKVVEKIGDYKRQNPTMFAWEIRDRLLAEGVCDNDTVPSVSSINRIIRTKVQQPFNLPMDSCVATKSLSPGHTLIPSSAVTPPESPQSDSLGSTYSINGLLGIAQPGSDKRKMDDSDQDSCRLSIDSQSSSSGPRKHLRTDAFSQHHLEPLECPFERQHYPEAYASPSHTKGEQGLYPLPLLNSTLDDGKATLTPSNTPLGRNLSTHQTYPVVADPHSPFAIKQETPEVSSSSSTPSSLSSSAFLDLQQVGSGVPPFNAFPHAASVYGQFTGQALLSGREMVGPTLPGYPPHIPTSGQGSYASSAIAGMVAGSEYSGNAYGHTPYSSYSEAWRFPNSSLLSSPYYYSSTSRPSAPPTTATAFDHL
NAD-dependent protein deacylase sirtuin-5, mitochondrial, sequence (Q9NXA8 whole entry): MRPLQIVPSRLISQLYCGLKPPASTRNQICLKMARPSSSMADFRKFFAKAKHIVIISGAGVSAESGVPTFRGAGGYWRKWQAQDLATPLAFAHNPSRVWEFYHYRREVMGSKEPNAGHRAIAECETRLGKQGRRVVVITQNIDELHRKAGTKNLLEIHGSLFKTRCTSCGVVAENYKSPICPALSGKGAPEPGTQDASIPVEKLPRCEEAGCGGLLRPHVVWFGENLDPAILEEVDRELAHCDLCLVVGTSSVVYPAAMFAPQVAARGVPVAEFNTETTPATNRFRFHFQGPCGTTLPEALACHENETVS
RNA-editing ligase 1, mitochondrial, sequence (P86926 whole entry): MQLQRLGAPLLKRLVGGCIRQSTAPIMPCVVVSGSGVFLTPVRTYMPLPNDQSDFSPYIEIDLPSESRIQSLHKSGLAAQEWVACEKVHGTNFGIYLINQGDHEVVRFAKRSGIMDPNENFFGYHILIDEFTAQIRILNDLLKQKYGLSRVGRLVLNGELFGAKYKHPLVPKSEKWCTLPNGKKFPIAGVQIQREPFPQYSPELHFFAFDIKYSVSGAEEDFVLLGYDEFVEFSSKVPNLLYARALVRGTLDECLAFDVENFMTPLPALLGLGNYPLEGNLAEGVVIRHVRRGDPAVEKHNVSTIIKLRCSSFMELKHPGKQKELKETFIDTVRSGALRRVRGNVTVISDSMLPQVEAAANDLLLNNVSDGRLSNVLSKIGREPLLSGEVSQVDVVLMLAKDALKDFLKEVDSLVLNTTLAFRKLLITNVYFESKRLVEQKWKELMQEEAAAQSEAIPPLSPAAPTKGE

## CCN1CCN(C2=C(NC(=O)c3ccc(Br)cc3)C(=O)c3ccccc3C2=O)CC1
[1]
  AC50: 15.2 µM (active)
[2]
  AC50: 6.71 µM (active)

## Fc1ccc(-c2cc(NCCCN3CCCCC3)c3ccccc3n2)cc1
[3]
  IC50: 1.4 µM (active)
[4]
  IC50: 3.27 µM (active)

## Cc1cccc(-c2ccc([C@H]3[C@H]4CN(S(=O)(=O)c5cccc(C)c5)CCCCN4[C@H]3CO)cc2)c1
Paired box protein Pax-8
  AC50: 7.45 µM (active)
[5]
  AC50: 43.5 µM (active)
[6]
  AC50: 67.1 µM (active)
[7]
  AC50: 44.6 µM (active)
[8]
  AC50: 2.07 µM (active)
[9]
  AC50: > 100 µM (inactive)
[10]
  AC50: 2.62 µM (active)
[11]
  AC50: 1.19 µM (active)
[12]
  AC50: > 39 µM (inactive)
[13]
  AC50: 1.42 µM (active)

## COC(=O)C1=C(C)N(Cc2ccc(C(F)(F)F)cc2)C(NCc2ccccc2C(F)(F)F)=NC1c1cccc(Cl)c1 (stereo not given)
[14]
  IC50: > 96.6 µM (inactive)

## Cc1ccc(C)c(S(=O)(=O)Nc2ccccc2C(=O)Nc2ccccc2N2CCOCC2)c1
[15]
  CC50: > 40 µM (active)

## Cc1noc(C)c1S(=O)(=O)Nc1ccc2c(c1)C(=O)N([C@@H](C)CO)C[C@H](C)[C@@H](CN(C)Cc1ccc(C(F)(F)F)cc1)OCCCC[C@H](C)O2
[16]
  AC50: 12.2 µM (active)
[17]
  CC50: 16.7 µM (active)

## C[C@@H]1CN([C@H](C)CO)C(=O)c2cc(NC(=O)Nc3ccc(C(F)(F)F)cc3)ccc2O[C@@H](C)CCCCO[C@@H]1CN(C)Cc1ccccc1
Paired box protein Pax-8
  AC50: 6.4 µM (active)
[18]
  AC50: 22.3 µM (active)
[5]
  AC50: 23 µM (active)
[19]
  AC50: 40.2 µM (active)
[6]
  AC50: 68 µM (active)
[7]
  AC50: 21.5 µM (active)

## Cc1c(C(=O)NCc2ccc3c(c2)OCCO3)sc(=O)n1Cc1ccccc1F
[20]
  AC50: > 52 µM (inactive)
